System: patients with treatment-resistant depression (TRD)
Experiment: MADRS total score, phase 2 doubly-randomized dose-response study in TRD (NCT01998958)
Type: in vivo, human
Details: for MADRS total score, Mean difference placebo: Period 1 and Period 2 Combined; for MADRS total score: LS mean difference vs placebo, range over esketamine dose groups / Proportion of responders (≥50% improvement in MADRS total score) / Remission (MADRS total score ≤10) / MADRS total score: treatment difference relative to placebo: phase 2; for MADRS total score: LS mean difference vs placebo, range over esketamine dose groups: 28, 56, 84 mg; for Proportion of responders (≥50% improvement in MADRS total score): Period 2 endpoint; for Remission (MADRS total score ≤10): after 2 weeks; for MADRS total score: treatment difference relative to placebo: day 15
Text: In Panel A, reported here, 14 study sites (13 in US, 1 in Belgium) enrolled participants into the study. The study consisted of four phases: 1) screening, 2) double-blind treatment (days 1 to 15), comprised of two 1-week periods (Period 1, Period 2), 3) optional open-label treatment (days 15 to 74) with tapering of intranasal dosing frequency, and 4) post-treatment follow-up (8 weeks). Based on prior studies of ketamine where efficacy was reported after 1-2 doses, the duration of each period in the double-blind phase was 1 week, during which time it was expected that efficacy could be achieved. This design allowed evaluation of the dose(s) needed to proceed to evaluation in phase 3. The purpose of the open-label flexible-dose phase was to evaluate the impact of less frequent dosing on sustaining efficacy.
At the beginning of double-blind Period 1, eligible participants were randomized (3:1:1:1) to intranasal placebo or esketamine 28, 56, or 84 mg, twice weekly (days 1 and 4) based on the first of two computer-generated randomization schedules (Period 1 and Period 2). Randomization was balanced by using randomly permuted blocks and stratified by study center. At the end of Period 1, those randomized to placebo who had moderate-to-severe symptoms (assessed by Quick Inventory of Depressive Symptomatology-Self Report (Trivedi 2016 and Rush, “The 16-item Quick Inventory of Depressive Symptomatology (QIDS) Clinician Rating (QIDS-C) and Self-Report (QIDS-SR): A psychometric evaluation in patients with chronic major depression”, Biol. Psychiatry, 2003, 54(5):573-583) [QIDS-SR16] total score: moderate, 11-16; severe, >16) were re-randomized (1:1:1:1) to intranasal esketamine 28, 56, or 84 mg or placebo, twice weekly (days 8 and 11), while those having mild or no symptoms continued on placebo. To maintain the blind, all participants completed an identical process prior to entry into Period 2, whether or not they were re-randomized. Regardless of response in the double-blind phase, all participants were eligible to enter the optional open-label phase. Esketamine (56 mg) was administered on the first day of the open-label phase (study day 15); subsequent doses could be adjusted (range: 28 to 84 mg) based on investigator's clinical judgment, with administration twice weekly for first 2 weeks, weekly for next 3 weeks, then every 2 weeks thereafter.
Efficacy was assessed with the Montgomery-Asberg Depression Rating Scale (MADRS; Montgomery, “A new depression scale designed to be sensitive to change”, Br. J. Psychiatry, 1979, 134:382-389; Williams, “Development and reliability of a structured interview guide for the Montgomery Asberg Depression Rating Scale (SIGMA)”, Br. J. Psychiatry, 2008, 192(1):52-58) on days 1 (pre-dose and 2 hour post-dose), 2, 8 (pre-dose), 9, and 15, using the structured interview guide (SIGMA). See, Williams 2008.
Efficacy data were analyzed in intent-to-treat (ITT) analysis sets for each period and phase. The ITT analysis sets included all participants who received at least 1 dose of study medication during that period or phase and had baseline and at least one post-baseline MADRS total score within that period or phase.
The primary efficacy endpoint—change from baseline (pre-dose, day 1 in each period) to endpoint (day 8 in each period) in MADRS total score—was analyzed using the analysis of covariance (ANCOVA) model. For Period 1, the model included treatment and country as factors, and baseline MADRS total score as covariate. For Period 2, the model included treatment and country as factors, Period 2 baseline QIDS-SR16 score (moderate or severe), and Period 2 baseline MADRS total score as a continuous covariate.
Given the consistency between Periods 1 and 2 results (Chi 2016), esketamine dose groups were compared to placebo using a combined test on the weighted test statistics for each period in the double-blind treatment phase. […]

[1] = OL endpoint-day 74, Esketamine/Esketamine/OL Esketamine
[2] = OL endpoint-day 74, Placebo/Esketamine/OL Esketamine
[3] = OL endpoint-day 74, Placebo/Placebo/OL Esketamine
[4] = Period 1, 2 hours, esketamine 28 mg
[5] = Period 1, 2 hours, esketamine 56 mg
[6] = Period 1, 2 hours, esketamine 84 mg
[7] = Period 1, 24 hours, esketamine 28 mg
[8] = Period 1, 24 hours, esketamine 56 mg
[9] = Period 1, 24 hours, esketamine 84 mg
[10] = Period 1, study period endpoint (day 8), esketamine 28 mg
[11] = Period 1, study period endpoint (day 8), esketamine 56 mg
[12] = Period 1, study period endpoint (day 8), esketamine 84 mg
[13] = Period 2 (placebo nonresponsive participants re-randomized), 2 hours, esketamine 28 mg
[14] = Period 2 (placebo nonresponsive participants re-randomized), 2 hours, esketamine 56 mg
[15] = Period 2 (placebo nonresponsive participants re-randomized), 2 hours, esketamine 84 mg
[16] = Period 2 (placebo nonresponsive participants re-randomized), 24 hours, esketamine 28 mg
[17] = Period 2 (placebo nonresponsive participants re-randomized), 24 hours, esketamine 56 mg
[18] = Period 2 (placebo nonresponsive participants re-randomized), 24 hours, esketamine 84 mg
[19] = Period 2 (placebo nonresponsive participants re-randomized), study period endpoint (day 15), esketamine 28 mg
[20] = Period 2 (placebo nonresponsive participants re-randomized), study period endpoint (day 15), esketamine 56 mg
[21] = Period 2 (placebo nonresponsive participants re-randomized), study period endpoint (day 15), esketamine 84 mg
[22] = Week 8 (Follow-up), Esketamine/Esketamine/OL Esketamine
[23] = Week 8 (Follow-up), Placebo/Esketamine/OL Esketamine
[24] = Week 8 (Follow-up), Placebo/Placebo/OL Esketamine

Structure (SMILES): CN[C@]1(c2ccccc2Cl)CCCCC1=O [esketamine, (S)-2-(2-chlorophenyl)-2-(methylamino)cyclohexanone]
- Remission Rate, No, % [1]: 72.2%
- Remission Rate, Yes, % [1]: 27.8%
- Response Rate, ≥50% improvement, % [1]: 61.1%
- Remission Rate, No, % [2]: 60.0%
- Remission Rate, Yes, % [2]: 40.0%
- Response Rate, ≥50% improvement, % [2]: 50.0%
- Remission Rate, No, % [3]: 66.7%
- Remission Rate, Yes, % [3]: 33.3%
- Response Rate, ≥50% improvement, % [3]: 100%
- Remission Rate, No, % (OL endpoint-day 74, Total): 67.6%
- Remission Rate, Yes, % (OL endpoint-day 74, Total): 32.4%
- Response Rate, ≥50% improvement, % (OL endpoint-day 74, Total): 64.7%
- MADRS total score, LS mean change [4]: −16.4
- MADRS total score, LS mean difference placebo [4]: −6.7
- Remitters, % [4]: (27.3) %
- Responders, % [4]: (54.5) %
- MADRS total score, LS mean change [5]: −14.3
- MADRS total score, LS mean difference placebo [5]: −4.6
- Remitters, % [5]: (18.2) %
- Responders, % [5]: (36.4) %
- MADRS total score, LS mean change [6]: −17.6
- MADRS total score, LS mean difference placebo [6]: −7.9
- Remitters, % [6]: (25.0) %
- Responders, % [6]: (58.3) %
- MADRS total score, LS mean change [7]: −14.8
- MADRS total score, LS mean difference placebo [7]: −9.1
- Remitters, % [7]: (36.4) %
- Responders, % [7]: (36.4) %
- MADRS total score, LS mean change [8]: −15.7
- MADRS total score, LS mean difference placebo [8]: −10.0
- Remitters, % [8]: (18.2) %
- Responders, % [8]: (27.3) %
- MADRS total score, LS mean change [9]: −16.4
- MADRS total score, LS mean difference placebo [9]: −10.7
- Remitters, % [9]: (25.0) %
- Responders, % [9]: (41.7) %
- MADRS total score, LS mean change [10]: −9.8
- MADRS total score, LS mean difference placebo [10]: −5.0
- Remitters, % [10]: (9.1) %
- Responders, % [10]: (9.1) %
- MADRS total score, LS mean change [11]: −12.4
- MADRS total score, LS mean difference placebo [11]: −7.6
- Remitters, % [11]: (9.1) %
- Responders, % [11]: (18.2) %
- MADRS total score, LS mean change [12]: −15.3
- MADRS total score, LS mean difference placebo [12]: −10.5
- Remitters, % [12]: (25.0) %
- Responders, % [12]: (41.7) %
- MADRS total score, Mean difference placebo (esketamine 28 mg): −4.2
- MADRS total score, Mean difference placebo (esketamine 56 mg): −6.3
- MADRS total score, Mean difference placebo (esketamine 84 mg): −9.0
- MADRS total score, LS mean change [13]: −10.3
- MADRS total score, LS mean difference placebo [13]: −3.5
- Remitters, % [13]: (12.5) %
- Responders, % [13]: (12.5) %
- MADRS total score, LS mean change [14]: −11.7
- MADRS total score, LS mean difference placebo [14]: −4.9
- Responders, % [14]: (22.2) %
- MADRS total score, LS mean change [15]: −11.6
- MADRS total score, LS mean difference placebo [15]: −4.9
- Remitters, % [15]: (40.0) %
- Responders, % [15]: (40.0) %
- MADRS total score, LS mean change [16]: −8.9
- MADRS total score, LS mean difference placebo [16]: −4.8
- MADRS total score, LS mean change [17]: −10.2
- MADRS total score, LS mean difference placebo [17]: −6.1
- Responders, % [17]: (11.1) %
- MADRS total score, LS mean change [18]: −11.6
- MADRS total score, LS mean difference placebo [18]: −7.5
- Remitters, % [18]: (20.0) %
- Responders, % [18]: (40.0) %
- MADRS total score, LS mean change [19]: −7.6
- MADRS total score, LS mean difference placebo [19]: −3.1
- Remitters, % [19]: (12.5) %
- Responders, % [19]: (12.5) %
- MADRS total score, LS mean change [20]: −8.9
- MADRS total score, LS mean difference placebo [20]: −4.4
- MADRS total score, LS mean change [21]: −11.4
- MADRS total score, LS mean difference placebo [21]: −6.9
- Remitters, % [21]: (20.0) %
- Responders, % [21]: (20.0) %
- Remission Rate, No, % [22]: 54.5%
- Remission Rate, Yes, % [22]: 45.5%
- Response Rate, ≥50% improvement, % [22]: 68.2%
- Remission Rate, No, % [23]: 75.0%
- Remission Rate, Yes, % [23]: 25.0%
- Response Rate, ≥50% improvement, % [23]: 25.0%
- Remission Rate, No, % [24]: 42.9%
- Remission Rate, Yes, % [24]: 57.1%
- Response Rate, ≥50% improvement, % [24]: 71.4%
- Remission Rate, No, % (Week 8 (Follow-up), Total): 58.5%
- Remission Rate, Yes, % (Week 8 (Follow-up), Total): 41.5%
- Response Rate, ≥50% improvement, % (Week 8 (Follow-up), Total): 56.1%
- MADRS total score: LS mean difference vs placebo, range over esketamine dose groups (Period 1 (baseline to day 8)): −5.0 to −10.5
- MADRS total score: LS mean difference vs placebo, range over esketamine dose groups (Period 2 (day 8 to day 15)): −3.1 to −6.9
- Proportion of responders (≥50% improvement in MADRS total score) (28 mg): 37.5%
- Proportion of responders (≥50% improvement in MADRS total score) (56 mg): 36.4%
- Proportion of responders (≥50% improvement in MADRS total score) (84 mg): 50.0%
- Remission (MADRS total score ≤10) (28 mg): 12.5%
- Remission (MADRS total score ≤10) (56 mg): 27.3%
- Remission (MADRS total score ≤10) (84 mg): 40.0%
- MADRS total score: treatment difference relative to placebo (completers with same treatment 2 weeks, 84 mg): −12.5
- MADRS total score: treatment difference relative to placebo (completers, 28 mg): −6.0
- MADRS total score: treatment difference relative to placebo (completers, 56 mg): −8.3

Source: patent US20230121313A1 (priority 2019, published 2023)
